The conditions of data set [1]: 80° C.-100° C., presence of a chloride ion source and low pH.
The subject of data set [2] is monoamine oxidase enzyme Type-B (MAO-B). The conditions noted are these: cited from earlier work.

Consider three compounds from patent US7598420B1, “Rasagiline formulations and processes for their preparation” (Teva Pharmaceutical Industries, Ltd., priority 2005, dated 2009).

With `C#CCN[C@@H]1CCc2ccccc21.CS(=O)(=O)O` [rasagiline mesylate, N-propargyl-1(R)-aminoindan mesylate], the “chlorination of the triple bond to form chlorinated allyl aminoindans (2-chloro and cis-3-chloro)” value in data set [1] is given as “susceptible to chlorination”.

On to `C#CCN[C@@H]1CCc2ccccc21` [(R)-PAI, N-propargyl-1(R)-aminoindan], for which the MAO-B inhibitory activity entry in data set [2] is given as “active MAO-B inhibitor”. For the same compound, in data set [2] (compared with the corresponding racemic form), the “degree of selectivity for MAO-B inhibition” value was “surprisingly higher than that of the corresponding racemic form”.

For `C#CCN[C@H]1CCc2ccccc21` [(S)-PAI], in data set [2], the MAO-B inhibitory activity result is recorded as “extremely low MAO-B inhibitory activity”.
